Results published in paper PMC11055068, “Humoral Immune Response to SARS-CoV-2 Spike Protein Receptor-Binding Motif Linear Epitopes” (Vaccines, 2024).

How the values were obtained:
[1] = test system: IgG in serum of vaccinated individuals; assay: In-house peptide ELISA, IgG; assay type: binding, human; settings: serum 1:25; for IgG seroreactivity (positive samples): reactivity index > 1.1
Experimental: A panel of 31 serum samples were obtained from individuals who received a single dose of the Oxford/AstraZeneca vaccine, and 15 serum samples were collected from individuals who received four doses. Serum from healthy donors, collected before the pandemic, was provided by HEMORIO, a centralized network of blood donor facilities in Rio de Janeiro, Brazil. Serum samples were supplied without identifying information to ensure patient privacy.
An in-house ELISA was conducted using Immunolon 4 HB plates (Immunochemistry Technologies, Bloomington, MN, USA). The coating process involved overnight incubation at 4 °C, wherein each well received 500 ng of peptides in a coating buffer (50 mM carbonate–bicarbonate buffer, pH 9.6). After washing with PBS-T (phosphate-buffered saline plus 0.05% Tween 20), the plates were incubated for 1 h at 37 °C with 1% BSA (200 µL) in PBS-T to block free binding sites. Following the dilution of patient serum in PBS-T with 1% BSA (1:25), 100 µL of the diluted serum was applied to immunosorbent plates, which were then incubated at 37 °C for 1 h. Following a series of PBS-T washes, plates were treated with 100 µL of mouse anti-human IgG3 (1:1000) followed by association with antimouse peroxidase (1:15.000) or goat anti-human immunoglobulin classes IgG (1:10.000), IgM (1:10.000), and IgA (1:5000) or subclasses IgG1 (1:1000) and IgG2 (1:1000) associated with the HRP molecule, respectively (Sigma-Aldrich, St Louis, MO, USA). Between each step, the plates were incubated at 37 °C for 1 h. Following the addition of 3,3′,5,5′-tetramethylbenzidine (1-Step™ Ultra TMB-ELISA, Science Biotech Ltd., Lages, SC, Brazil) for 15 min, 0.5 M sulfuric acid was utilized to terminate the reaction. The plate was read 30 min after the Stop Solution was added. The values of empty wells that contained only peptides were deducted from the optical density of the sample.
Prism software (GraphPad version 6, San Diego, CA, USA) was utilized to analyze the data. Statistical differences were identified using the Kruskal–Wallis test and Dunn’s multiple comparisons tests. Differences were considered significant when the p-value was less than 0.05. The reactivity index (RI) was calculated by dividing the absorbance of a given protein by the threshold established by a receiver operation curve (ROC) analysis. A result greater than 1.10 was considered positive, while a result less than 0.90 was considered negative; these are represented by dot lines. Samples with a relative index (RI) value of 1.0 ± 10% were classified as gray-zone samples and deemed inconclusive.

[2] = test system: Purified antibodies specific to the RBM (anti-RBM antibodies from vaccinated serum); assay type: binding, human
[3] = Protein thermal shift assay; assay type: physicochemical
Experimental: Protein thermal shift assays were performed using a QuantStudio 3 PCR System (Applied Biosystems, Foster City, CA, USA). The experiments used a 0.2 mL MicroAmp® optical eight-strip manufactured by Applied Biosystems. Every step was executed on ice. In each measurement, duplicates or quadruplicates of the samples were analyzed. Each measurement included a negative control free of protein and a positive control obtained with Lysozyme (10 µg) and the peptide S8WT (5 µg). A carbonate–bicarbonate buffer (50 mM, pH 9.6) and a protein thermal shift dye (Applied Biosystems, Foster City, CA, USA) were used in a 4× dye concentration. The plate was sealed with MicroAmp™ Optical Adhesive Film (Applied Biosystems, Foster City, CA, USA) and incubated on ice for 15 min after all components were pipetted into the wells. An Applied Biosystems QuantStudio™ 3 Real-Time PCR System was used, utilizing a gradient rate of 0.05 °C/s and a melt curve filter setting of x2-m2 from 25 °C to 99 °C with continuous data collection. Analyses of the melting curves were conducted with the TSAR application in R version 4.2.1.

antibodies in sera = settings: ref A novel precision-serology assay for SARS-CoV-2 infection based on linear B-cell epitopes of Spike protein; cited from earlier work
[4] = first dose Oxford/AstraZeneca, n = 30, 500 ng peptide per well
[5] = heterologous booster doses, n = 7

With GSTPCNGVEGFNCYF [S2WT] the “IgG positive samples (reactivity index > 1.1)” value [1, 4] was 4/30, the “IgG seroreactivity (positive samples)” value ([1]; first dose Oxford/AstraZeneca, n = 30) was 13.3% and the “IgG positive samples (reactivity index > 1.1)” value [1, 5] was 1/7. For the same substance, the “IgG seroreactivity (positive samples)” value [1, 5] was 14.3%, the “binding affinity of RBM antibodies (in words)” value [2] was “stronger” and the Kd ([2]; read-out: Kd (dissociation constant)) was 35 nM.

Lysozyme showed a Tm ([3]; Lysozyme 10 µg control, carbonate–bicarbonate buffer 50 mM, pH 9.6, 25 to 99 °C, 0.05 °C/s, protein thermal shift dye) of 72.7 °C, a Tm ([3]; replicate 1 (Lysozyme_1), 10 µg, carbonate–bicarbonate buffer pH 9.6) of 71.7 °C and a Tm ([3]; replicate 2 (Lysozyme_2), 10 µg, carbonate–bicarbonate buffer pH 9.6) of 73.7 °C.

For NGVEGFNCYFP, the “serological reactivity vs other S1 and S2 regions” value (antibodies in sera) is listed as “less serologically reactive than other S1 and S2 regions”.

With YFPLQSYGFQPTNGV [S3WT] the “IgG positive samples (reactivity index > 1.1)” value [1, 4] was “only two positive samples” and the “IgG positive samples (reactivity index > 1.1)” value [1, 5] was “one for heterologous booster doses”.
